Measurements taken from US20260000781A1, “FC CONJUGATES INCLUDING AN INHIBITOR OF CD73 AND USES THEREOF” (Cidara Therapeutics, Inc., priority 2022, published 2026).
Several values for one entry are separate records, joined by “and”; a condition that tells them apart may be missing. Equal values may be shown once.

How the values were obtained:
CD73 [1] = target: T1, CD73 (Homo sapiens, UniProt P21589); test: Cell-free CD73 enzyme inhibition assay; type: biochemical; details: recombinant human CD73 0.1 ng/μL, AMP 100 μM, 25 min at 37° C. (FIG. 1A, 1B)
T1 sequence (P21589 27-549): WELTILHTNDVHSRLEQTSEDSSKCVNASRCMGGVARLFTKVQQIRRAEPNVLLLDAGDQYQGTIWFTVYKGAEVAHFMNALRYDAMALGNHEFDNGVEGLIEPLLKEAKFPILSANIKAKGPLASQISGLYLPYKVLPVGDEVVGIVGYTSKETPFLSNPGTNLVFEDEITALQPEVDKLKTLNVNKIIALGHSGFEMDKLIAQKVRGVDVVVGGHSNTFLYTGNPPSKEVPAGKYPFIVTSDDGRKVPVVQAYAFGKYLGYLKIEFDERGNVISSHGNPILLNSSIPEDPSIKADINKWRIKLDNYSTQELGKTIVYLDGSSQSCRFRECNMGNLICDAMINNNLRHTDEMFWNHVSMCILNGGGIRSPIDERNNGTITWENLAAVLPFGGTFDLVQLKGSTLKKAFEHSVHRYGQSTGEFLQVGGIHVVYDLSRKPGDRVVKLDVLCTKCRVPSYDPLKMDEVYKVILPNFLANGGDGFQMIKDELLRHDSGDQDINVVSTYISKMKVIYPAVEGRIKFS
Experimental: The cell-free CD73 enzyme inhibition assay was performed in a 96-well plate format using the CD73 Inhibitor Screening Assay Kit in accordance with the manufacturer's instructions (cat no. 72055, BPS Bioscience). […] Colorimetric detection reagent was then added (100 μL/well) and the free phosphate from the CD73 reaction was measured by reading the absorbance at 630 nm using the EnSpire multimode plate reader (PerkinElmer). Wells without test inhibitor (CD73 positive control) were included on each plate. Blank wells without test inhibitor and CD73 were subtracted from all wells. Percent CD73 inhibition versus inhibitor concentration was plotted using GraphPad Prism Version 8 and IC50's calculated using nonlinear regression analysis (Sigmoidal, 4 PL).
(§1) The cell-free CD73 enzyme inhibition assay was performed in a 96-well plate format using the CD73 Inhibitor Screening Assay Kit in accordance with the manufacturer's instructions (BPS Bioscience cat no. 72055). […] Colorimetric detection reagent was then added (100 μL/well) and the free phosphate from the CD73 reaction was measured by reading the absorbance at 630 nm using the EnSpire multimode plate reader (PerkinElmer). Wells without test inhibitor (CD73 positive control) were included on each plate. Blank wells without test inhibitor and CD73 were subtracted from all wells. Percent CD73 inhibition (y-axis) versus log10 inhibitor concentration (x-axis) was plotted using GraphPad Prism Version 8 and IC50's calculated using nonlinear regression analysis (Sigmoidal, 4 PL).

CD73 on MDA-MB-231 cells = target: T2, CD73 on MDA-MB-231 cells (Homo sapiens, UniProt P21589); test: CD73 internalization assay (Fab-ZAP); type: cell-based
T2 construct: host or cells: MDA-MB-231
T2 sequence (P21589 27-549): T1 sequence (P21589 27-549)
Experimental: Cells were plated into white tissue culture-treated 96 well plates (Corning cat no. 3917) at 5×10^3 to 1×10^4 cells/well in 100 μL in RPMI (Gibco cat no. 11875093)+10% FBS (Gibco cat no. 16140071) and incubated overnight at 37° C. with 5% CO2. Serial dilutions of test article (TA) from 0.00002 nM-200 nM (2× final concentration) were pre-incubated with 100 nM Fab-ZAP reagent (2× final concentration) for 30 min at room temperature. Cells were washed once with 150 μL/well 1×PBS (Gibco cat no. 10010023), followed by the addition of 50 μL/well of media and 50 μL/well TA/Fab-ZAP mix. Cells were then incubated for 72 h at 37° C. with 5% CO2 and viability was determined after 72 h via the CellTiter-Glo assay (Promega cat no. G7570) following the manufacturer's instructions. Cell viability RLU versus log10 nM drug concentration was plotted using GraphPad Prism. The % CD73 internalization was calculated using the following formula: % CD73 internalization=[1−RLU (sample)/RLU (untreated cells)]×100%. The EC50's for each TA was calculated using the 4 PL non-linear regression analysis in GraphPad Prism software.
Cells were plated into white tissue culture-treated 96 well plates (Corning cat no. 3917) at 2×10^3 cells/well in 100 μL in RPMI (Gibco cat no. 11875093)+10% FBS (Gibco cat no. 16140071) and incubated overnight at 37° C. with 5% CO2. Serial dilutions of test article (TA) from 0.06 nM-20 nM (2× final concentration) were pre-incubated with 100 nM Fab-ZAP reagent (2× final concentration) for 30 min at room temperature. […] Cells were then incubated for 96 h at 37° C. with 5% CO2 and viability was determined after 96 h via the CellTiter-Glo assay (Promega cat no. G7570) following the manufacturer's instructions. […] The % CD73 internalization was calculated using the following formula: % CD73 internalization=[1−RLU (sample)/RLU (untreated cells)]×100%. The EC50's for each TA was calculated using the 4 PL non-linear regression analysis in GraphPad Prism software.

CD73 [2] = target: T1, CD73; test: Cell-free CD73 enzyme inhibition assay (BPS Bioscience kit, colorimetric free phosphate); type: biochemical; details: AMP 100 μM, 25 min at 37° C.
Experimental: as §1

[3] = tested on: adenosine production by human PBMCs; test: PBMC activation assay, AMP conversion by CellTiter-Glo; type: cell-based; details: 30 μM AMP, 72 h
Experimental: Human PBMCs (StemCell Technologies cat no. 70025) prepared in ImmunoCult™—XF T cell Expansion medium (StemCell Technologies cat no. 10981) were seeded at 1×10^5 cells per well (100 μL of 1×10^6 cells/mL) in the presence or absence of T cell activator anti-CD3/CD28/CD2 (StemCell Technologies cat no. 10970) in 96 well round bottom plates (Corning cat no. 3788). Ten-fold serial dilutions of each test article was prepared in medium (ranging from 4,000 nM-0.4 nM), resulting in final concentrations ranging from 1,000 nM-0.1 nM. 50 μL of test article was added to the cells, followed by 50 μL of adenosine 5′ monophosphate (AMP; MilliporeSigma cat no. A1752) for a final concentration of 30 μM. Plates were incubated at 37° C. with 5% CO2 for 72 h. After 72 h the cells were centrifuged for 5 min at 300×g at 4° C. and the supernatant was reserved for analysis of AMP conversion using CellTiter-Glo (Promega cat no. G7571).
25 μL of reserved supernatant was transferred to a white 96-well plate (Corning cat no. 3917) and combined with 25 μL of a 1 μM adenosine 5′ triphosphate (ATP; MilliporeSigma cat no. A7699) solution. 50 μL of CellTiter-Glo reagent was added, and the plate incubated for 10 min at room temperature. Luminescence was measured using an EnSpire plate reader (PerkinElmer). […]

| IC50 (CD73 [1]) [nM] | Cell internalization EC50 (nM) (CD73 on MDA-MB-231 cells; 72 h (Table 11)) | IC50 (CD73 [2]) | Cell internalization EC50 (nM) (CD73 on MDA-MB-231 cells; 96 h (Table 23)) | Structure (SMILES) | EC50 [3] [nM] | EC50 ([3]; Homo sapiens, PBMC) [nM] |
| --- | --- | --- | --- | --- | --- | --- |
| 4.1 | did not induce receptor internalization | 12.9 nM |  | O=P(O)(O)COC[C@H]1O[C@@H](n2ncc3c(N4CC5(CCc6ccccc65)C4)nc(Cl)nc32)[C@H](O)[C@@H]1O [SHR170008] |  |  |
|  |  |  |  | COC[C@](CO)(OC[C@H]1O[C@@H](n2ncc3c(NC4CCCC4)nc(Cl)nc32)[C@H](O)[C@@H]1O)P(=O)(O)O [OP5244] | 1 |  |
|  |  |  |  | C[C@H](Nc1cc(Cl)nc2c1cnn2[C@@H]1O[C@H](COP(=O)(O)CP(=O)(O)O)[C@@H](O)[C@H]1O)c1ccccc1F [AB680] |  | 5 |
| 1.3 | did not induce receptor internalization | 3.8 nM and 3.79 nM | No activity | COC[C@](CO)(OC[C@H]1O[C@@H](n2ncc3c(NC4CCCC4)nc(Cl)nc32)[C@H](O)[C@@H]1O)P(=O)(O)O [OP-5244] |  |  |
